How the values were obtained:
[1] = test system: Pyricularia oryzae Carvara KA301; type: in vivo; conditions: for C. V. (%) Fungicidal Activities against RCB at 10 ppm / C. V. (%) Fungicidal Activities against RCB at 10 ppm (TABLE 6): sprayed on Nakdong rice plant, control value from lesion area; for C. V. (%) RCB: 50 ppm, control value, rice blast
Botrytis cinerae = experiment: Fungicidal activity against cucumber gray mold rot (CGM) disease; type: in vivo; conditions: 50 ppm, control value
Experimental: Botrytis cinerae, which was isolated from cucumber infected thereby, was inoculated on a PDA agar medium and cultured under a 12L/12D cycle at 25° C. for 15 days to form spore. The spores were scraped, filtered through a gauze and then suspended in potato dextrose liquid medium at a concentration of 1×10^6 spore/ml. The spore suspension was sprayed on a cucumber plant having one leaf. The cucumber plant was held in a humidified room at 20° C. for 3 days. L.A. on a leaf was measured to calculate an C.V.

Phytophthora infestans = type: in vivo; conditions: 50 ppm; control value, tomato late blight
Puccinia recondita = experiment: Fungicidal activity against wheat leaf rust (WLR) disease; type: in vivo; conditions: for C. V. (%), Fungicidal Activities against WLB at 10 ppm: Table 8 (Test Example 5); for C. V. (%) WLR: 50 ppm, control value, wheat leaf rust
Erysiphae graminis = experiment: Fungicidal activity against barley powdery mildew (BPM) disease; type: in vivo; conditions: for C. V. (%), Fungicidal activities against TLB at 10 ppm: Table 9 (Test Example 6); for C. V. (%) BPM: 50 ppm, control value, barley powdery mildew
Experimental: Erysiphae graminis was subcultured on a wheat plant in a laboratory. 15 g of barley seeds was sowed in a pot (diameter 6.5 cm) and cultured in a greenhouse for 7 days to obtain a barley plant having only a primary leaf. The barley plant was inoculated with spores by shaking thereover another plant infected by BPM. The inoculated barley plant was cultured in an incubator maintained at a temperature of 22 to 24° C. and a relative humidity of 50% for 7 days to induce BPM. L.A. on the leaf was measured to calculate an C.V.

Rhizoctonia solani AG-1 = experiment: Fungicidal activity against rice sheath blight (RSB) disease; conditions: 50 ppm, control value
Experimental: 50 ml of the resulting solution was sprayed on leaves of a host plant. The plant was kept at room temperature for 24 hours to let the solvent evaporate, and then, a pathogenic fungus was inoculated thereonto. The plant was held in a humidity chamber for 24 hours, transferred to an plant growth room kept at 20 to 27° C. and a relative humidity of 60 to 80% and kept to induce disease. Subsequently, the lesion area(L.A.) attacked by the pathogenic fungus was measured according to a method of Cho(Cho, K. Y., Search Report by Korea Research Institute of Chemical Technology (1989))”. This procedure was repeated twice for each test. 10% Acetone solution containing 250 ppm of Tween-20 was used as a control.
The fungicidal activity of the compound of the present invention is repressed by a control value (C.V.) calculated as; [formula]
Rhizoctonia solani AG-1 was cultured on a PDA medium(potato 200 g, dextrose 20 g, agar 20 g and distilled water 1 l) for 3 days and the agar disc (diameter 0.6 cm) was inoculated and cultured on sterilized wheat bran medium in a 1 l bottle at 26 to 28° C. for 7 days. A mycelial mass was ground using a homogenizer, inoculated uniformly on soil of a pot wherein a Nakdong rice plant having 2 or 3 leaves and an height of 5 cm grew, and kept in humidity polyvinyl chamber for 5 days to induce RSB. L.A. on a leaf sheath was measured to calculate an C.V.

Row | SMILES | C. V. (%) Fungicidal Activities against RCB at 10 ppm [1] [%] | C. V. (%) Fungicidal Activities against RCB at 10 ppm (TABLE 6) [1] [%] | C. V. (%) RCB [1] [%] | C. V. (%) CGM (Botrytis cinerae) [%] | C. V. (%) TLB (Phytophthora infestans) [%] | C. V. (%), Fungicidal Activities against WLB at 10 ppm (Puccinia recondita) [%] | C. V. (%) WLR (Puccinia recondita) [%] | C. V. (%), Fungicidal activities against TLB at 10 ppm (Erysiphae graminis) [%] | C. V. (%) BPM (Erysiphae graminis) [%] | C. V. (%) RSB (Rhizoctonia solani AG-1) [%]
1 | COC=C(C(=O)OC)c1ccccc1COc1cccc(OC(F)=Cc2ccc(Cl)cc2)c1 [Compound 37] | 100 | 100 | 95 | 58 | 93 | 97 | 98 | 100 | 98 | 45
2 | CNC(=O)C(=COC)c1ccccc1COc1cccc(OC(F)=Cc2ccc(Cl)cc2)c1 [Compound 38] | – | – | 33 | 15 | 33 | – | 0 | – | 8 | 5
3 | CON=C(C(=O)OC)c1ccccc1COc1cccc(OC(F)=Cc2ccc(Cl)cc2)c1 [Compound 39] | – | – | 100 | 15 | 80 | – | 86 | 95 | 96 | 90
4 | COC(=O)C(=CSC)c1ccccc1COc1cccc(OC(F)=Cc2ccc(Cl)cc2)c1 [Compound 40] | – | – | 73 | 9 | 33 | – | 83 | – | 93 | 70
5 | CO/C=C(/C(=O)OC)c1ccccc1COc1cccc(OC(F)=C(c2ccccc2)C(F)(F)F)c1 [Compound 45, methyl (2E)-3-methoxy-2-{2′-{3′-(2′″-fluoro-1′″-trifluoromethylstyryl)-2′″-oxy}phenoxymethyl}phenyl-2-propenoate] | 90 | 90 | 90 | 0 | 0 | 100 | 100 | 100 | 100 | 94
6 | CNC(=O)/C(=C/OC)c1ccccc1COc1cccc(OC(F)=C(c2ccccc2)C(F)(F)F)c1 [Compound 46, (2E)-N-methyl-3-methoxy-2-{2′-{3″-(2′″-fluoro-1′″-trifluoromethylstyryl)-2′″-oxy}phenoxymethyl}phenyl-2-propenoamide] | – | – | 0 | 27 | 11 | – | 53 | – | 0 | 20
7 | CON=C(C(=O)OC)c1ccccc1COc1cccc(OC(F)=C(c2ccccc2)C(F)(F)F)c1 [Compound 47] | – | – | 96 | 26 | 64 | – | 86 | 98 | 98 | 90
8 | CNC(=O)C(=NOC)c1ccccc1COc1cccc(OC(F)=C(c2ccccc2)C(F)(F)F)c1 [Compound 48] | 100 | 100 | 97 | 28 | 70 | 100 | 100 | 100 | 98 | 45
9 | COC=C(C(=O)OC)c1ccccc1COc1cccc(OC(F)=C(c2cccc(C)c2)C(F)(F)F)c1 [Compound 49] | – | – | 95 | 41 | 0 | 95 | 100 | 100 | 100 | 50
10 | CNC(=O)C(=COC)c1ccccc1COc1cccc(OC(F)=C(c2cccc(C)c2)C(F)(F)F)c1 [Compound 50] | – | – | 0 | 5 | 33 | – | 0 | – | 0 | 25
